Results reported in ChEMBL document CHEMBL5543153, “Discovery of a Potent Dual Son of Sevenless 1 (SOS1) and Epidermal Growth Factor Receptor (EGFR) Inhibitor for the Treatment of Prostate Cancer” (J Med Chem, 2024).
The source made the active and inactive calls. The calls are words filed in the database; no cut-off is given here.

Columns and labels:
[1] = target: T1, Son of sevenless homolog 1 (Homo sapiens) (UniProt Q07889); experiment: Inhibition of human recombinant SOS1 at 10 uM relative to control
T1 sequence (whole entry): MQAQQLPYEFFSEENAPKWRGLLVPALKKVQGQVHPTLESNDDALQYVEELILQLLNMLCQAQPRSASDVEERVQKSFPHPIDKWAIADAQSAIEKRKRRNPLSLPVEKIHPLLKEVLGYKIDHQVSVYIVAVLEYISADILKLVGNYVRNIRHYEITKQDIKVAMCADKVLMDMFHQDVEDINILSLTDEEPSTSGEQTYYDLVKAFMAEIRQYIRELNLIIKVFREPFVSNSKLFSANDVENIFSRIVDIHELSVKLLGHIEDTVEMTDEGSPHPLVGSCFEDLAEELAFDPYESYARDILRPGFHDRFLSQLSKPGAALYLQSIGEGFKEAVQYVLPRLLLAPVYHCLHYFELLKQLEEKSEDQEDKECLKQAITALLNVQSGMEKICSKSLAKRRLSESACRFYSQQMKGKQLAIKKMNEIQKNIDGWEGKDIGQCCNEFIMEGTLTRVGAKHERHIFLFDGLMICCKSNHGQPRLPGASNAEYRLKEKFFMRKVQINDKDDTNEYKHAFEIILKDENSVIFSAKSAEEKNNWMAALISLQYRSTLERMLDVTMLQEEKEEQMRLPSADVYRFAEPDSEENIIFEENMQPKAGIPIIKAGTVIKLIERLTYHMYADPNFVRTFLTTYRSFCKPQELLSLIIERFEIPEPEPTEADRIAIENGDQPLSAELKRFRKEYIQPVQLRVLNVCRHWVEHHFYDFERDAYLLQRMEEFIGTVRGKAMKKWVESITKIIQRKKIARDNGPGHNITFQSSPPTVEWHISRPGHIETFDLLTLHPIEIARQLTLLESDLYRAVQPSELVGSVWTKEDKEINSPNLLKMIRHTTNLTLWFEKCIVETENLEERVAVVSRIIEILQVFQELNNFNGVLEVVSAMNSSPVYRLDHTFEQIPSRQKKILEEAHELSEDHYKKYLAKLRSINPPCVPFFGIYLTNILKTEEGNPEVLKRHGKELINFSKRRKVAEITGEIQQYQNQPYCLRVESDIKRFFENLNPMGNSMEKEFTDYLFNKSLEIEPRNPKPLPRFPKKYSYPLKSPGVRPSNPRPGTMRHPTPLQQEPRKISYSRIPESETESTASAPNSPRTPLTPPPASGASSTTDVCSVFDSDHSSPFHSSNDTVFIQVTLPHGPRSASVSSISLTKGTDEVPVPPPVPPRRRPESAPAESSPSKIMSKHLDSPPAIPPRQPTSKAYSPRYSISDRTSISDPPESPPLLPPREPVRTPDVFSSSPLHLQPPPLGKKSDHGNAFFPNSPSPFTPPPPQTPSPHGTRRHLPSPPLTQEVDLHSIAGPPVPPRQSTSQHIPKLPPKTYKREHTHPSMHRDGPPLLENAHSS

[2] = target: Epidermal growth factor receptor (Homo sapiens, UniProt P00533); experiment: Inhibition of EGFR (unknown origin) using ultra ULight GT peptide as substrate at 10 uM incubated for 2 hrs relative to control
PC-3 [3] = experiment: cells; conditions: Homo sapiens, PC-3, 72 h
Description: Synergistic antiproliferative activity against human PC-3 cells assessed as inhibition of cell growth incubated for 72 hrs in presence of gefitinib by MTT assay

PC-3 [4] = experiment: cells; assay type: functional, cell-based; conditions: Homo sapiens, PC-3, 72 h
Description: Antiproliferative activity against human PC-3 cells assessed as inhibition of cell growth incubated for 72 hrs by MTT assay

Sequence of Epidermal growth factor receptor (P00533 whole entry): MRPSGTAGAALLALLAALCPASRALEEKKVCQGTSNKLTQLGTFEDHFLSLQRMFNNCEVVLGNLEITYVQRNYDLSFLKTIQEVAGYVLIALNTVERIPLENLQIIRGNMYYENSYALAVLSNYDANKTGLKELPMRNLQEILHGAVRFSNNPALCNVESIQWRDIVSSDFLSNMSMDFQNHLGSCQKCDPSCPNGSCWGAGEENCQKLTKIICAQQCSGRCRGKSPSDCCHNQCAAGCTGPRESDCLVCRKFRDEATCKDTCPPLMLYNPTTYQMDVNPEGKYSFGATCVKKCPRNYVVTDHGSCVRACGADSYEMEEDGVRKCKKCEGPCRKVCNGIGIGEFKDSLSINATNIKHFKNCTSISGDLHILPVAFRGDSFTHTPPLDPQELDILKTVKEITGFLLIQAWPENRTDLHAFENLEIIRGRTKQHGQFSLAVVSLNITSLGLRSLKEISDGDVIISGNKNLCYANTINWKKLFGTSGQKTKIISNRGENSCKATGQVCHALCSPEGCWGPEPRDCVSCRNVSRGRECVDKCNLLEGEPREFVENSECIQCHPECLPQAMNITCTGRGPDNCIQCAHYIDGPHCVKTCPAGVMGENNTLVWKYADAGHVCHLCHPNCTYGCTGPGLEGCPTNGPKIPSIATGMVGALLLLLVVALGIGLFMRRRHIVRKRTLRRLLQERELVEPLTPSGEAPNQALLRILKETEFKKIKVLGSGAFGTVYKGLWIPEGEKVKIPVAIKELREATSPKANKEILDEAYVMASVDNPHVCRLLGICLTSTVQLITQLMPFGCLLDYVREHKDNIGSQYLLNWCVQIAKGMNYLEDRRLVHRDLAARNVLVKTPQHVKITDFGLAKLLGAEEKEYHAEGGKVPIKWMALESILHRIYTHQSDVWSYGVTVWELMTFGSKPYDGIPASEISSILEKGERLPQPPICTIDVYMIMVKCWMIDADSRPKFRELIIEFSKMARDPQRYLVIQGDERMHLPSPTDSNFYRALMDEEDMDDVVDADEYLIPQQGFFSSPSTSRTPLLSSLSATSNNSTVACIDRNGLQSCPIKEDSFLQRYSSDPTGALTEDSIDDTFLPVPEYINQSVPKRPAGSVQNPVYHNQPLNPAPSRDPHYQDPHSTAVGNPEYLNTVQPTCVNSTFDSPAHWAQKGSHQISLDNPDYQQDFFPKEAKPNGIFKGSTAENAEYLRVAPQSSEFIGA

Row | inhibition [1] | inhibition [2] | SMILES | IC50 (PC-3 [3]) | IC50 (PC-3 [4])
1 | inactive | 91% | c1ccc2c(Nc3ccc4c(c3)OCO4)ncnc2c1 |  | 
2 | 47% | 84% | Clc1ccc(CNc2ncnc3ccccc23)cc1 |  | 
3 | inactive | 70% | c1ccc(Nc2ncnc3sc4c(c23)CCC4)cc1 |  | 
4 |  |  | COc1cc2nc(C)nc(N[C@H](C)c3cc(N)cc(C(F)(F)F)c3)c2cc1O[C@H]1CCOC1 | 1.37 µM | 8.75 µM
5 | inactive | 73% | Cc1cccc(Nc2ncnc3c2cnn3C)c1 |  | 
6 | 41% | 92% | COc1cc2ncnc(NCc3ccc4c(c3)OCO4)c2cc1OC |  | 
7 | inactive | 64% | CCc1cc2c(Nc3ccc(OC)cc3)ncnc2s1 |  | 
8 | 43% | 90% | COc1cc2ncnc(NCc3ccccc3C(F)(F)F)c2cc1OC |  | 
9 | inactive | 66% | CCc1cc2c(Nc3ccc(Cl)cc3)ncnc2s1 |  | 
10 | inactive | 62% | Cc1sc2ncnc(Nc3ccc(F)cc3)c2c1C |  | 
11 | inactive | 74% | Clc1cccc(Nc2ncnc3sc4c(c23)CCCC4)c1 |  | 
12 | 56% | 95% | COc1cc2ncnc(NCc3cccc(Cl)c3)c2cc1OC |  | 
